This is an account of results in patent US12612360B2 (Sanofi, priority 2020, dated 2026).

Where a name gives a salt, the structure may show the parent alone.

The assay has as its target T1, ERα (Homo sapiens, UniProt P03372).
T1 construct: host or cells: MCF7
T1 sequence (P03372 1-595): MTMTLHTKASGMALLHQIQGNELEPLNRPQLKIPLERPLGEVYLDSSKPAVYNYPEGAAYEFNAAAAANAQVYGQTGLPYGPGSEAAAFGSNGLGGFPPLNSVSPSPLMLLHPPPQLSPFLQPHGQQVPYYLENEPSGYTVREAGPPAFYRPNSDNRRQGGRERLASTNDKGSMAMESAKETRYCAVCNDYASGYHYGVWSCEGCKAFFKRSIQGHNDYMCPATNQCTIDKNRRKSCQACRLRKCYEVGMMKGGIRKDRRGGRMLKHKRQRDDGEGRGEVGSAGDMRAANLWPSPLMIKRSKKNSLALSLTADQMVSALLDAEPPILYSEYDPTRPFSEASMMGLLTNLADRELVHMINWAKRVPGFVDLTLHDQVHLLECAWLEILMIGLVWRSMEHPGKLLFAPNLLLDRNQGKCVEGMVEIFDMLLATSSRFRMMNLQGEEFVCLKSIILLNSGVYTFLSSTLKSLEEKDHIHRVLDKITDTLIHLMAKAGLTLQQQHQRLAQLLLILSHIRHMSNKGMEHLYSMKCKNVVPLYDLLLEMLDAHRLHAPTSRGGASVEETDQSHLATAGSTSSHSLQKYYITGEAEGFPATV
Put plainly: Estrogen receptor degradation activity: breast cancer cell ERα in cell western assay (MCF7 cells). In kind it is cell-based. The conditions noted are these: for % Degradation At 0.3 μM: 4 hours, relative to fulvestrant 0.1 μM positive control; for DC50: 4 hours post compound addition, concentration which degrades 50% of the estrogen receptor, read-out: Degradation IC50. The procedure, abridged: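 In-cell western readout: ERα immunofluorescence (Alexa 488) normalised to DNA signal (Syto-64) after formalin fixation. Compounds dosed for 4 h on MCF7 cells in stripped-serum, phenol-red-free medium over nine 1:5 steps, 0.3 to […] final; fulvestrant 0.1 μM control. IC50 in nM for 50% ERα degradation.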

Take `Cc1cc(C2=C(c3ccc(C=C4CN(CCCF)C4)cc3)c3ccc(C(=O)O)cc3CCC2)cc(C(F)(F)F)c1` [Example 145, 9-(4-((1-(3-fluoropropyl)azetidin-3-ylidene)methyl)phenyl)-8-(3-methyl-5-(trifluoromethyl)phenyl)-6,7-dihydro-5H-benzo[7]annulene-3-carboxylic acid]: the “% Degradation At 0.3 μM” value came to 85% and the DC50 was 4.3 nM.
Regarding `O=C(O)c1ccc2c(c1)CCCC(c1c(F)ccc3c1CCC3)=C2c1ccc(C=C2CN(CCC(F)F)C2)cc1` [Example 160, 9-(4-((1-(3,3-difluoropropyl)azetidin-3-ylidene)methyl)phenyl)-8-(5-fluoro-2,3-dihydro-1H-inden-4-yl)-6,7-dihydro-5H-benzo[7]annulene-3-carboxylic acid], the “% Degradation At 0.3 μM” value is listed as 93% and the DC50 is 0.6 nM.
In the case of `O=C(O)c1ccc2c(c1)CCCC(c1cccc(Cl)c1F)=C2c1ccc(C=C2CN(CCCF)C2)cc1` [Example 47, 8-(3-chloro-2-fluorophenyl)-9-(4-((1-(3-fluoropropyl)azetidin-3-ylidene)methyl)phenyl)-6,7-dihydro-5H-benzo[7]annulene-3-carboxylic acid], the “% Degradation At 0.3 μM” value worked out at 91% and the DC50 is 0.3 nM.
In the case of `O=C(O)c1ccc2c(c1)CCCC(c1cc(C(F)(F)F)ccc1F)=C2c1ccc(C=C2CN(CCCF)C2)cc1` [Example 121, 8-(2-fluoro-5-(trifluoromethyl)phenyl)-9-(4-((1-(3-fluoropropyl)azetidin-3-ylidene)methyl)phenyl)-6,7-dihydro-5H-benzo[7]annulene-3-carboxylic acid], the “% Degradation At 0.3 μM” value came out at 94% and the DC50 was 0.7 nM.
Take `O=C(O)c1ccc2c(c1)CCCC(c1cc(F)cc3c1CCC3)=C2c1ccc(C=C2CN(CCCF)C2)cc1` [Example 4, 8-(6-fluoro-2,3-dihydro-1H-inden-4-yl)-9-(4-((1-(3-fluoropropyl)azetidin-3-ylidene)methyl)phenyl)-6,7-dihydro-5H-benzo[7]annulene-3-carboxylic acid]: the “% Degradation At 0.3 μM” value is listed as 86% and the DC50 stood at 0.8 nM.
As for `O=C(O)c1ccc2c(c1)CCCC(c1ccc(C(F)(F)F)cc1C(F)(F)F)=C2c1ccc(C=C2CN(CCCF)C2)cc1` [Example 16, 8-(2,4-bis(trifluoromethyl)phenyl)-9-(4-((1-(3-fluoropropyl)azetidin-3-ylidene)methyl)phenyl)-6,7-dihydro-5H-benzo[7]annulene-3-carboxylic acid], the “% Degradation At 0.3 μM” value is recorded as 93% and the DC50 stood at 0.4 nM.
With `O=C(O)c1ccc2c(c1)CCCC(c1ccc3c(c1)CC3)=C2c1ccc(C=C2CN(CCCF)C2)cc1` [Example 8, 8-(Bicyclo[4.2.0]octa-1,3,5-trien-3-yl)-9-(4-((1-(3-fluoropropyl)azetidin-3-ylidene)methyl)phenyl)-6,7-dihydro-5H-benzo[7]annulene-3-carboxylic acid], the “% Degradation At 0.3 μM” value came to 86% and the DC50 stood at 0.4 nM.
In the same order, the values of `Cc1cc(F)c(C2=C(c3ccc(C=C4CN(CCCF)C4)cc3)c3ccc(C(=O)O)cc3CCC2)c(F)c1` [Example 51, 8-(2,6-difluoro-4-methylphenyl)-9-(4-((1-(3-fluoropropyl)azetidin-3-ylidene)methyl)phenyl)-6,7-dihydro-5H-benzo[7]annulene-3-carboxylic acid] are 95% and 0.4 nM.
Regarding `Cc1cc(F)ccc1C1=C(c2ccc(C=C3CN(CCCF)C3)cc2)c2ccc(C(=O)O)cc2CCC1` [Example 98, 8-(4-fluoro-2-methylphenyl)-9-(4-((1-(3-fluoropropyl)azetidin-3-ylidene)methyl)phenyl)-6,7-dihydro-5H-benzo[7]annulene-3-carboxylic acid], the “% Degradation At 0.3 μM” value came out at 96% and the DC50 was 0.3 nM.
On the same counts, the results for `Cc1cc(F)ccc1C1=C(c2c(F)cc(C=C3CN(CCCF)C3)cc2F)c2ccc(C(=O)O)cc2CCC1` [Example 68] are 96% and 0.3 nM.
In the same order, the values of `Cl.O=C(O)c1ccc2c(c1)CCCC(c1ccc(Cl)cc1Cl)=C2c1ccc(C=C2CN(CCCF)C2)cc1F` [Example 101, 8-(2,4-dichlorophenyl)-9-(2-fluoro-4-((1-(3-fluoropropyl)azetidin-3-ylidene)methyl)phenyl)-6,7-dihydro-5H-benzo[7]annulene-3-carboxylic acid hydrochloride] are 93% and 0.4 nM.
As to `O=C(O)c1ccc2c(c1)CCCC(c1ccc(Cl)cc1C(F)(F)F)=C2c1ccc(C=C2CN(CCC(F)F)C2)cc1` [Example 128, 8-(4-chloro-2-(trifluoromethyl)phenyl)-9-(4-((1-(3,3-difluoropropyl)azetidin-3-ylidene)methyl)phenyl)-6,7-dihydro-5H-benzo[7]annulene-3-carboxylic acid], the “% Degradation At 0.3 μM” value turned out to be 93% and the DC50 came out at 1.1 nM.
On the same counts, the results for `O=C(O)c1ccc2c(c1)CCCC(c1cc(C(F)(F)F)ccc1C(F)(F)F)=C2c1ccc(C=C2CN(CCCF)C2)cc1` [Example 151, 8-(2,5-bis(trifluoromethyl)phenyl)-9-(4-((1-(3-fluoropropyl)azetidin-3-ylidene)methyl)phenyl)-6,7-dihydro-5H-benzo[7]annulene-3-carboxylic acid] are 90% and 0.2 nM.
For `COc1ccc(C2=C(c3ccc(C=C4CN(CCCF)C4)cc3)c3ccc(C(=O)O)cc3CCC2)cc1C(F)(F)F` [Example 148, 9-(4-((1-(3-fluoropropyl)azetidin-3-ylidene)methyl)phenyl)-8-(4-methoxy-3-(trifluoromethyl)phenyl)-6,7-dihydro-5H-benzo[7]annulene-3-carboxylic acid], the “% Degradation At 0.3 μM” value is listed as 90% and the DC50 is 1.2 nM.
Take `O=C(O)c1ccc2c(c1)CCCC(c1ncc(Cl)cc1C(F)(F)F)=C2c1ccc(C=C2CN(CCC(F)F)C2)cc1` [Example 125, 8-(5-chloro-3-(trifluoromethyl)pyridin-2-yl)-9-(4-((1-(3,3-difluoropropyl)azetidin-3-ylidene)methyl)phenyl)-6,7-dihydro-5H-benzo[7]annulene-3-carboxylic acid]: the “% Degradation At 0.3 μM” value came out at 91% and the DC50 is 0.7 nM.
`O=C(O)c1ccc2c(c1)CCCC(c1c(F)cccc1Cl)=C2c1ccc(C=C2CN(CCCF)C2)cc1` [Example 42, 8-(2-chloro-6-fluorophenyl)-9-(4-((1-(3-fluoropropyl)azetidin-3-ylidene)methyl)phenyl)-6,7-dihydro-5H-benzo[7]annulene-3-carboxylic acid]: the “% Degradation At 0.3 μM” value came to 91% and the DC50 is 0.2 nM.
In the case of `O=C(O)c1ccc2c(c1)CCCC(c1ccc(F)c(C(F)(F)F)c1)=C2c1ccc(C=C2CN(CCCF)C2)cc1` [Example 154, 8-(4-fluoro-3-(trifluoromethyl)phenyl)-9-(4-((1-(3-fluoropropyl)azetidin-3-ylidene)methyl)phenyl)-6,7-dihydro-5H-benzo[7]annulene-3-carboxylic acid], the “% Degradation At 0.3 μM” value was 92% and the DC50 worked out at 0.4 nM.
For the compound `O=C(O)c1ccc2c(c1)CCCC(C1CC3CCC(C3)C1)=C2c1ccc(C=C2CN(CCCF)C2)cc1` (stereo not drawn) [Example 178, 8-(bicyclo[3.2.1]octan-3-yl)-9-(4-((1-(3-fluoropropyl)azetidin-3-ylidene)methyl)phenyl)-6,7-dihydro-5H-benzo[7]annulene-3-carboxylic acid], the “% Degradation At 0.3 μM” value turned out to be 95% and the DC50 is 1.4 nM.
As to `O=C(O)c1ccc2c(c1)OCCC(c1ccc(Cl)cc1Cl)=C2c1ccc(C=C2CN(CCCF)C2)cc1` [Example 114, 4-(2,4-Dichlorophenyl)-5-(4-((1-(3-fluoropropyl)azetidin-3-ylidene)methyl)phenyl)-2,3-dihydrobenzo[b]oxepine-8-carboxylic acid hydrochloride], the “% Degradation At 0.3 μM” value was found to be 91% and the DC50 is 0.4 nM.
In the same order, the values of `O=C(O)c1ccc2c(c1)CCCC(c1c(F)cc(F)cc1F)=C2c1ccc(C=C2CN(CCCF)C2)cc1` [Example 33, 9-(4-((1-(3-fluoropropyl)azetidin-3-ylidene)methyl)phenyl)-8-(2,4,6-trifluorophenyl)-6,7-dihydro-5H-benzo[7]annulene-3-carboxylic acid] are 92% and 0.3 nM.
On the same counts, the results for `Cc1cc(F)ccc1C1=C(c2cc(F)c(C=C3CN(CCCF)C3)c(F)c2)c2ccc(C(=O)O)cc2CCC1` [Example 36, 9-(3,5-difluoro-4-((1-(3-fluoropropyl)azetidin-3-ylidene)methyl)phenyl)-8-(4-fluoro-2-methylphenyl)-6,7-dihydro-5H-benzo[7]annulene-3-carboxylic acid] are 89% and 0.4 nM.
